The record followed here is a melting point compilation (Tetko et al.; mined from patent text by program, amines drawn as free bases though some values may be those of a salt).

`N#Cc1ccc2c(O)c(C(=O)NCCCCN3CCN(C(c4ccccc4)c4ccccc4)CC3)cnc2c1`: the melting point (as a rule, the temperature of the solid-liquid transition) fell in the range of 223 to 225 °C.

Turning to `FC(F)(F)c1cnc(-c2ccc(Cl)c(CBr)c2)c(Cl)c1`, the melting point was 71 to 72 °C.

Molecule `O=c1[nH]c2cc(Cl)c(Cl)cc2nc1Cl` returned a melting point above 300 °C.

Regarding `CCc1cc(CC)c2ccc(N)nc2n1`, the melting point lay within 187 to 189 °C.

With `NS(=O)(=O)c1nc2ccc(OC(=O)C=Cc3ccccc3)cc2s1`, the melting point amounted to 235 °C.

Take `CCc1c(O)cc(O)c(C(=O)c2ccccc2)c1CC(=O)N1CCN(c2ccccc2C#N)C(=O)C1`: the melting point fell in the range of 259 to 261 °C.

`Cc1cc(C(O)(C(F)(F)F)C(F)(F)F)cc(C)c1NCCC#N`: the melting point was in the range of 111 to 114 °C.

For `CC(C)N(C)c1nccc(Oc2ccc(NC(=O)c3cc(F)cc(N4CCOCC4)c3)c3ccccc23)n1`, the melting point lay in the range of 94 to 96 °C.

`CCCCOC(=O)NS(=O)(=O)CCc1cc(OCCCC)nn1Cc1ccc(Cl)cc1Cl` gave a melting point of 108 to 111 °C.

Molecule `Cc1cc(-n2cnn(Cc3ccccc3)c2=O)sc1C(=O)NCc1cccnc1` registered a melting point of 180 to 181 °C.

In turn, `CCc1c(F)c(F)c(-n2ncc(C#N)c2NCC(C)C(=O)O)c(F)c1F` (configuration not stated) had a melting point of 138 to 140 °C.

The molecule `Cc1cccc2nc3sccn3c(=O)c12` registered a melting point of 148 to 150 °C.

Consider `CNC(=O)Nc1cc(C(C)(C)C)c2c(c1)C(C)(C)CO2`, for which the melting point is 193 to 194 °C.

The molecule `CC(=O)NCCC1CCc2ccc3nc(C(F)(F)F)oc3c21` (configuration not stated) came in with a melting point of 114 to 116 °C.

On to `CC(C)(C)c1ccc(C=CC(=O)c2ccc(N3CCN(c4ccncc4)CC3)cc2)cc1`, for which the melting point was 213 to 214 °C.

For the molecule `N#CCc1cc2ccccc2s1`, the melting point lay in the range of 59 to 61 °C.

`CC1(C)Oc2ccc(C#N)cc2[C@@H](NC(=O)c2ccc(Cl)cc2)[C@@H]1O` (relative stereo) displayed a melting point of 226 to 229 °C.

`NC(=O)N1CCc2cc(S(N)(=O)=O)sc2C1` yielded a melting point of 205 to 208 °C.

Molecule `CCOc1cc(-c2cc(C(F)F)n3ncc(C(=O)Nc4cccc(S(=O)(=O)NC(C)(C)CO)c4)c3n2)ccc1C(F)(F)F` came in with a melting point of 250 °C.

In turn, `Cc1coc(N(CCCCCCN)c2nc(C)co2)n1` registered a melting point of 124 °C.

For the molecule `Cn1nc(-c2ccc(Cl)c(Cl)c2)cc1C(=O)O`, the melting point lay within 252 to 256 °C.

In the case of `COc1cc(C(=O)O)ccc1C(C)c1c[nH]c2ccc(C(=O)NCCC(C)C)cc12` (configuration not stated), the melting point is 190 to 191 °C.

For `CC1(C)C(=O)NC(=O)c2ccccc21`, the melting point is 84 to 88 °C.

For `Cc1oncc1C(=O)N1CCCC1`, the melting point is 51 to 53 °C.

`Cc1nc(-c2ccccc2)sc1CNC(=O)c1ccnc(N2CCN(Cc3ccc(F)cc3)C2=O)c1` returned a melting point of 182 to 184 °C.

`COc1nc(Cl)cc2nc(S(=O)(=O)Nc3nn(C)cc3Br)nn12`: the melting point was in the range of 230 to 232 °C.

Turning to `Cc1cc(=O)oc2cccc(OC(=S)N(C)C)c12`, the melting point lay within 166 to 168 °C.

In turn, `Clc1ccc(-n2nc3c(c2Br)CCCC3)cc1` showed a melting point of 101 to 102 °C.

`CN(CCc1ccc([N+](=O)[O-])cc1)Cc1nc2ccc([N+](=O)[O-])cc2o1` returned a melting point of 69 to 69.5 °C.

Regarding `CS/C=C(/C)n1c(=O)n(Cc2cc(C(F)(F)F)cc(C(F)(F)F)c2)c2ccccc21`, the melting point was determined as 148 °C.

`O=c1[nH]c(=O)n2c3c(cccc13)Sc1ccc(C(F)(F)F)cc1-2` registered a melting point of 278 to 280 °C.

Consider `CCCc1c(OCCCOc2cc(NC(=O)c3nnn[nH]3)c(C)cc2Br)ccc(C(C)=O)c1O`, for which the melting point was 63 to 65 °C.

The molecule `N#CN=CNCc1cc(Cl)nc(Cl)c1` returned a melting point of 160 °C.

`CC1(C)Oc2ccc(C#N)cc2[C@@H](NC(=O)c2ccccn2)[C@@H]1O` (relative stereo): the melting point came to 165 °C.

`COc1c2c(c(OC)c(OC)c1OC)CCC(CCn1cnc3ccccc31)CC2` registered a melting point of 121 to 123 °C.

For the molecule `COCC(C)n1nc(-c2cnc(N)nc2-c2ccccc2)ccc1=O` (configuration not stated), the melting point lay within 180 to 181 °C.

Turning to `Cc1cc2c(c(C)c1O)OC[C@@H](N1CCC(O)(c3ccc(F)cc3)CC1)[C@H]2O` (relative stereo), the melting point fell in the range of 226 to 227 °C.

On to `COc1cccc(NS(=O)(=O)c2cccc(C=CC(=O)NO)c2)c1`, for which the melting point worked out at 137 °C.

`CCCCN1C(=O)CSC(=NOC(=O)NC)C1C` (configuration not stated) yielded a melting point of 118 to 120 °C.

As to `COc1ccc(C2=CC(=O)CCC2)cc1`, the melting point lay in the range of 83 to 85 °C.

Turning to `CCOC(=O)Oc1cc(OC)cc(OC)c1C(=O)C=Cc1ccc(OC)cc1`, the melting point was 107 °C.

For the molecule `CC(=O)N(C)c1ccc2sc3ccccc3c(=O)c2c1`, the melting point was in the range of 246 to 248 °C.

Consider `CCN1CCC2(CC1)COc1cc3c(cc12)N(C(=O)c1ccc(-c2ccc(-c4noc(C)n4)cc2C)cc1)CC3`, for which the melting point is 202 to 204 °C.

In turn, `O=c1[nH][nH]c(=O)c2c(O)c3cccc(Cl)c3nc12` returned a melting point above 390 °C.

Molecule `O=C(O)c1ccccc1OCCN1CCC(c2cn(CC3CC3)c3cc(F)ccc23)CC1` had a melting point of 97 °C.

On to `CC1CC2=C(CCC(O)C2)C2CCC3(C)C(CO)CCC3C12` (configuration not stated), for which the melting point is 64 to 70 °C.

The molecule `CSc1c(C=NO)c(=O)n(C)c(=O)n1C` yielded a melting point of 165 °C.

Molecule `COc1ccccc1N1CCN(CC2Cc3cc(C)c4[nH]c(=O)ccc4c3O2)CC1` (configuration not stated) yielded a melting point of 163 to 166 °C.

As to `CN(Cc1cccc2c1C(=O)N(C1CCC(=O)NC1=O)C2=O)C(=O)C1CC1` (configuration not stated), the melting point was in the range of 243 to 245 °C.

As for `COC(=O)[C@H](Cc1ccc(NC(=O)c2c(Cl)cccc2Cl)cc1)NC(=O)c1ccc(C(=O)Nc2cccc(O)c2)cc1Cl`, the melting point is 230 to 232 °C.

Turning to `CCOC(=O)c1cc(OCc2ccccc2)c2nc(C)c(C)n2c1`, the melting point fell in the range of 140 to 141 °C.

`COC(=O)c1cc(C)c(C(OC(=O)C(Cc2ccccc2)NS(=O)(=O)c2ccc(C)cc2)c2cc(-n3ccnc3)ccc2C)c(C)c1` (configuration not stated): the melting point is 111 to 112 °C.

On to `O=C(O)CCC(=O)Nc1ccc(N2CCN(C3(c4ccc(-c5ccccc5)cc4)C(=O)NC(=O)NC3=O)CC2)cc1`, for which the melting point was 246 to 247 °C.

Regarding `CC(=O)SCCC(=O)N1c2ccccc2CCC1C(=O)O` (configuration not stated), the melting point is 89 to 91 °C.

Regarding `Cn1cc(Cl)c2c1C(=O)Nc1ccccc1N2`, the melting point was in the range of 172 to 175 °C.

Molecule `COc1cc(N2CCC(N3CCCN(C)CC3)CC2)ccc1Nc1ncc2ccc(-c3ccccc3OC)n2n1` came in with a melting point of 69 to 76 °C.

Take `NC(=O)NC1CCC(OC(=O)c2ccccc2)c2sccc21` (configuration not stated): the melting point lay in the range of 199 to 205 °C.

`O=C(O)c1cncc(O)c1`: the melting point was above 260 °C.

`CN(C)c1ccc2c(c1)C(=O)N(c1ccc(CCCC(=O)OC(C)(C)C)cc1)C2` registered a melting point of 115 to 116 °C.

In turn, `Cc1cccc(NC(=O)NCC(=O)N(CC(=O)OC(C)(C)C)c2cccc(Cl)c2Cl)c1` registered a melting point of 135 °C.

Take `CC1c2cc(C(C)(C)C)cc(C(C)(C)C)c2O[Si](C)(C)Oc2c1cc(C(C)(C)C)cc2C(C)(C)C`: the melting point lay in the range of 171 to 177 °C.

Molecule `Cn1c2ccccc2c2c(C(=O)C(F)(F)F)csc21` returned a melting point of 138 to 140 °C.

Molecule `O=C1C(=O)c2ccccc2C2=C1SCC1(CCN(S(=O)(=O)c3cccs3)CC1)O2` yielded a melting point of 245 to 248 °C.

On to `COc1ccc(-n2nc(Sc3cccc(Cl)c3)c(C)c(C#N)c2=O)cc1`, for which the melting point lay in the range of 123 to 124 °C.

For the molecule `CC(=O)NCC(=O)c1cccc(Cl)c1Cl`, the melting point was in the range of 107 to 109 °C.

`CCOC(=O)C1CCN(C(=O)c2[nH]c(C)c(-c3nc4ccc(C(=O)c5ccccc5)cc4[nH]3)c2C)CC1`: the melting point is 272 to 274 °C.

Turning to `CCOC(=O)c1cc(NCc2ccccc2)c(Nc2ccc3ccccc3c2)c(S(N)(=O)=O)c1`, the melting point lay within 199 to 201 °C.

In turn, `COc1ccc2c(c1)CCC1C2CCC2(C)C(O)C(C)CC12` (configuration not stated) yielded a melting point of 100 to 102 °C.

In the case of `CCCCCS(=O)(=O)NC(=O)/C=C/c1ccc(OCCOC)cc1Cc1ncc(Br)s1`, the melting point was in the range of 88.5 to 89.1 °C.

The molecule `CC1(C)C(=O)N(c2ccnc(N)c2)c2cccnc21` showed a melting point of 210 to 211 °C.

The molecule `CN(Cc1ccncc1)Cc1ccc(CCC(=O)Nc2ccc(-c3ccc(Cl)cc3)cc2)cc1` displayed a melting point of 102 °C.

For the molecule `COC(=O)c1sc(-c2ccccc2)cc1N=NN(C)C`, the melting point fell in the range of 92 to 94 °C.

`CCC(=O)N(C)c1cccc(-c2nc(=O)c3ccccc3s2)n1` showed a melting point of 201 °C.

The molecule `N#Cc1cc(C[C@H](N)C(=O)O)ccc1O` had a melting point above 250 °C.

Molecule `N#Cc1nc(Cl)ccc1[N+](=O)[O-]` displayed a melting point of 115 to 117 °C.

`COc1ccc(CC(=O)NC(NC(=NC#N)Nc2cccnc2OC)C(C)(C)C)cc1OC` (configuration not stated) gave a melting point of 146 to 147 °C.

In turn, `CC(=O)Oc1ccc(-n2c(-c3ccccc3)cc3ccccc32)cc1C(=O)O` registered a melting point of 178 to 180 °C.

Regarding `CCOC(=O)c1cccc2c1N(CCN1CC=C(c3c[nH]c4cc(F)ccc34)CC1)S(=O)(=O)N(C(C)C)C2`, the melting point fell in the range of 95 to 97 °C.

Consider `CCC(CC)CC(NC(=O)COC)C1(c2ccc(Cl)c(Cl)c2)CCC1` (configuration not stated), for which the melting point fell in the range of 72 to 74 °C.

For `c1ccc2c(c1)CSCCCN2`, the melting point lay within 77 to 79 °C.

As to `Cc1[nH]c2ccc(CCN(C)C3CCCCC3)cc2c1C(=O)OCc1ccccc1`, the melting point lay in the range of 122 to 124 °C.

The molecule `CC(C)(C)OC(=O)N[C@H](CC(=O)OCc1ccccc1)C(=O)N[C@H](CO)c1ccccc1` displayed a melting point of 117 to 118 °C.

In turn, `CC(O)c1cc(-c2cccc(F)c2)ccc1N` (configuration not stated) yielded a melting point of 136 to 137 °C.

Take `CC1(c2ccc(N)c(C(=O)c3ccccc3)c2)OCCO1`: the melting point was in the range of 108 to 111 °C.

Molecule `O=c1c2cc(Br)ccc2[nH]n1-c1ccccc1F` showed a melting point of 200 to 205 °C.

With `CCCCCCCCCCCCSC(C)(C)C(=O)O`, the melting point fell in the range of 62 to 64 °C.

Molecule `CC(C)c1nc(-c2ccc(F)cc2)c(-c2ccc(F)cc2)n1/C=C/[C@@H](O)C[C@@H](O)CC(=O)O` displayed a melting point of 172 to 173 °C.
